According to article PMC6554663, “Pharmaceutical Effects of Inhibiting the Soluble Epoxide Hydrolase in Canine Osteoarthritis” (Frontiers in Pharmacology, 2019):
“Also recorded” adds a separate entry of the source.

Legend:
aged beagle dogs with OA [1] = assay: Pain and function assessment (modified CBPI questionnaire) in arthritic dogs; assay type: in vivo, dog
Description: The study was conducted as a blinded, parallel matched-group design. Dogs were randomized into groups based on pretreatment pain scores and each group was randomly assigned a treatment. Prior to randomization, each dog was assessed for arthritis by radiograph to assess the severity of OA by presence of osteophytes, subchondral sclerosis or joint effusion each scored on a scale of 0 (least) to 3 (worst) for each of 12 joints. Severity of the radiograph score was included in the randomization protocol and distributed between the groups, and there were no statistical differences between the averages of each group. Individual radiograph scores can be found in Supplementary Table S2. […] Compounds were dissolved in PEG300 to a concentration of 2.4 mg/mL (1 mg/kg) and 12 mg/mL (5 mg/kg) and administered as approximately 5 mL in size 12 gelatin capsules (Torpac) administered once daily on days 1 through 5. Vehicle group consisted of 5 mL PEG300 in capsule. Concurrent medications were not allowed and not needed during the study.
Pain and function were assessed by a questionnaire answered by blinded technicians based on observation of study animals housed at InterVivo. The survey was adapted from the canine brief pain inventory (CBPI), which was developed based on clinical questionnaires in which owners score the function and pain level of their pets with existing pain conditions ([Brown et al., 2007]). Modifications to the questionnaire attempted to account for differences between owner pain evaluation of pets and pain evaluation of laboratory dogs by technical staff. For survey administration, blinded technicians attempted to elicit objective behavior-specific measures of function and pain level across a variety of normal canine behaviors (e.g., walking, trotting, galloping, rearing, and stair-climbing, etc.). For this, one technician was responsible for soliciting the relevant behaviors from a dog using encouragement and/or food rewards, while the evaluating technician scored function and observable pain using the modified CBPI questionnaire. Subjects were tested daily on Days -7 through -3, to develop baseline scores, and again on Days 1 through 5 administered 1.5 h after dosing. Dosing occurred in the morning, and observations were recorded 1.5 h after dosing, to limit time-of-day variability. Questions are listed in Supplementary Table S3. […]
Canine pain and function data were analyzed using ANOVA, linear mixed effects model, with Tukey adjustment in R and repeated measures ANOVA. Correlations coefficients were calculated in Graphpad Prism using the non-parametric Spearman correlation coefficient. In vitro experiments were analyzed using ANOVA in Graphpad Prism. […]

aged beagle dogs with OA [2] = assay: Tolerability, adverse events and body weight in the dog study; assay type: in vivo
Description: The study was conducted as a blinded, parallel matched-group design. Dogs were randomized into groups based on pretreatment pain scores and each group was randomly assigned a treatment. Prior to randomization, each dog was assessed for arthritis by radiograph to assess the severity of OA by presence of osteophytes, subchondral sclerosis or joint effusion each scored on a scale of 0 (least) to 3 (worst) for each of 12 joints. Severity of the radiograph score was included in the randomization protocol and distributed between the groups, and there were no statistical differences between the averages of each group. Individual radiograph scores can be found in Supplementary Table S2. […] Vehicle group consisted of 5 mL PEG300 in capsule. Concurrent medications were not allowed and not needed during the study.

Row | melting point [°C] | Structure (SMILES) | function scores compared to the other groups (trend) (aged beagle dogs with OA [1]; 5 mg/kg oral once daily) | pain compared to placebo / vehicle control (aged beagle dogs with OA [1]; 5 mg/kg oral once daily for 5 days, p < 0.05) | increase in function (aged beagle dogs with OA [1]; 5 mg/kg oral once daily, after 5-days of dosing) [%] | reduction in pain compared to predose values (maximum effect) (aged beagle dogs with OA [1]; 5 mg/kg oral once daily, day 4, average) [%] | health case noted during treatment: relation to treatment (aged beagle dogs with OA [2]; EC3039 1 mg/kg, individual dogs, 1 mg/kg) | health case noted during treatment: relation to treatment (aged beagle dogs with OA [2]; EC3039 5 mg/kg, individual dog, moist dermatitis of ventral neck)
1 | – | O=C(Nc1ccc(OC(F)(F)F)cc1)N[C@H]1CC[C@H](Oc2ccc(C(=O)O)cc2)CC1 [EC1728, trans-4-{4-[3-(4-trifluoromethoxy-phenyl)-ureido]-cyclohexyloxy}-benzoic acid] | tended to have increased function scores | significantly reduced pain; also recorded: significantly less pain | 16 | 44 | – | –
2 | 92.4 to 94.7 | CN(C(=O)N[C@H]1CC[C@H](Oc2ccc(C(=O)O)cc2)CC1)c1ccc(OC(F)(F)F)cc1 [EC3039, trans-4-{4-[3-methyl-3-(4-trifluoromethoxy-phenyl)-ureido]-cyclohexyloxy}-benzoic acid] | – | – | – | – | EC3039 – 1mg/kg / Not Related; also recorded: EC3039 – 1mg/kg / Unlikely Related | EC3039 – 5mg/kg / Not Related
